From patent US20060247250A1 (TargeGen, Inc., priority 2005, published 2006)
pIC50: −log10 of the molar value.

Experiments:
Format in all cases: biochemical
human Yes = molecular target: T1, human Yes (Homo sapiens, UniProt P07947); test: Yes kinase inhibition, luciferase-based residual ATP (KinaseGlo); settings: recombinant human Yes, ATP 3 μM, PTK2 substrate, 90 minutes at room temperature
T1 construct: purchased Panvera/Invitrogen
Procedure: (§1) The ability of compounds of the present invention to inhibit the activity of three groups of kinases was tested. Kinases tested included the src family (primarily src and yes), the angiogenic growth factors receptors (FGFR1, PDGFRb and VEGFR2) and the ephrin, EphB4. All kinase reactions were conducted in 96-well plates with a final reaction volume of 50 ul.
Recombinant human c-Src or Yes (28 ng/well, Panvera/Invitrogen, Madison Wis.), ATP (3 μM), a tyrosine kinase substrate (PTK2, 250 μM, Promega Corp., Madison Wis.), and test agents (at concentrations ranging from about 1 nM/l to about 100 μM/1), in the presence of Src kinase reaction buffer (Upstate USA, Lake Placid N.Y.). After reacting for about 90 minutes at room temperature, residual ATP was determined using a luciferase-based assay (KinaseGlo, Promega Corp.) as a measure of kinase activity. Data from four wells were then averaged and used to determine IC50 values for the test compounds (Prism software package, GraphPad Software, San Diego Calif.).

VEGFR2 = molecular target: T2, VEGFR2 (Homo sapiens, UniProt P35968); test: VEGFR2 kinase assay, residual ATP luminescence; settings: VEGFR2, poly(glu4tyr), 1.5 uM ATP, 60 minutes at 37 C; read-out: Vegfr IC50
T2 construct: purchased Cell Signaling/ProQinase
Procedure: as §1
(§2) FGFR1 and VEGFR2 kinase assays were similarly performed. FGFR1 (76 ng/well, Panvera/Invitrogen) was combined with 12.5 mg/ml poly(glu4tyr) (Sigma) and 2.5 uM ATP. VEGFR2 (14.1 U/well, Cell Signaling/ProQinase) was used with 0.3 mg/ml poly(glu4tyr) and 1.5 uM ATP. Both were incubated for 60 minutes at 37 C, and the residual ATP was measured via luminescence, per the procedure described above.

EphB4 = molecular target: T3, EphB4 (Homo sapiens, UniProt P54760); test: EphB4 kinase assay, residual ATP luminescence; settings: poly(glu4tyr), 6 uM ATP, 60 minutes at 37 C
T3 construct: purchased Upstate
T3 sequence (P54760 16-987): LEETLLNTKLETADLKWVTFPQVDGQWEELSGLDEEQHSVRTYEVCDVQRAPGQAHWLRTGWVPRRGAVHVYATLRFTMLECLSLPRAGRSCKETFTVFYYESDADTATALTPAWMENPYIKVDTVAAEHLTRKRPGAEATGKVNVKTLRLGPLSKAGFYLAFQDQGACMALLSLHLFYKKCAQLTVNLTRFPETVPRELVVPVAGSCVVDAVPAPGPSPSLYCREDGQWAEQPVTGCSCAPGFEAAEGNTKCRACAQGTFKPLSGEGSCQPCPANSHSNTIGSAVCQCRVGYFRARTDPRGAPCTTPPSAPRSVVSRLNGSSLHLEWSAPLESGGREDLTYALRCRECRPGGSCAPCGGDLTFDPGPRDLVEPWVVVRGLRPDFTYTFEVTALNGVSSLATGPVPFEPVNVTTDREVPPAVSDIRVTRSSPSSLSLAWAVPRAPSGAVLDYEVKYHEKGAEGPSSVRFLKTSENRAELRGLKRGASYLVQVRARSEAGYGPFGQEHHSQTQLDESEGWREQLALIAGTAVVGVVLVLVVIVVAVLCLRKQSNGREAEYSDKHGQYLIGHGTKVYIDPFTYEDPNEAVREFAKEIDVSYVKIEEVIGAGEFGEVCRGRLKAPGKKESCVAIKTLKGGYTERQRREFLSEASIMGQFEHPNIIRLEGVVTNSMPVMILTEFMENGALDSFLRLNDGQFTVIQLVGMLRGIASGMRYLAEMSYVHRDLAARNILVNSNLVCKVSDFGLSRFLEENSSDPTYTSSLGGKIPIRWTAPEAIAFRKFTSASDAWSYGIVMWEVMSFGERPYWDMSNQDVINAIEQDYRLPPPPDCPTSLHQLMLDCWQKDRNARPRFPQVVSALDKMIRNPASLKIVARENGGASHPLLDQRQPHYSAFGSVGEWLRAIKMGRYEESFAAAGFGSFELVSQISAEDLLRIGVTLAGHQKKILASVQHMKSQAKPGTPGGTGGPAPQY
Procedure: as §1
EphB4 kinase activity was similarly measured, using the luciferase-based technique described above. 28.9 mU/well EphB4 (Upstate) was reacted with 1 mg/ml poly(glu4tyr), 6 uM ATP and test reagents. The reaction was incubated for 60 minutes at 37 C and the residual ATP concentration was measured.

FGFR1 = molecular target: T4, FGFR1 (Homo sapiens, UniProt P11362); test: FGFR1 kinase assay, residual ATP luminescence; settings: poly(glu4tyr), 2.5 uM ATP, 60 minutes at 37 C
T4 construct: purchased Panvera/Invitrogen
Procedure: as §1, §2

PDGFRb = molecular target: T5, PDGFRb (Homo sapiens, UniProt P09619); test: PDGFRb kinase assay, residual ATP luminescence; settings: PTK2 peptide, 500 nM ATP, 60 minutes at 37 C; read-out: Pdgfrβ IC50
T5 construct: purchased Panvera/Invitrogen
Procedure: as §1
PDGFRb (0.16 ug/well, Panvera/Invitrogen) 500 nM ATP and the PTK2 peptide (700 uM) were combined with compound and reaction buffer as noted above for src. The reaction was incubated for 60 minutes at 37 C, and the residual ATP concentration was determined using the luciferase-based technique also noted above.

T1 sequence (P07947 whole entry): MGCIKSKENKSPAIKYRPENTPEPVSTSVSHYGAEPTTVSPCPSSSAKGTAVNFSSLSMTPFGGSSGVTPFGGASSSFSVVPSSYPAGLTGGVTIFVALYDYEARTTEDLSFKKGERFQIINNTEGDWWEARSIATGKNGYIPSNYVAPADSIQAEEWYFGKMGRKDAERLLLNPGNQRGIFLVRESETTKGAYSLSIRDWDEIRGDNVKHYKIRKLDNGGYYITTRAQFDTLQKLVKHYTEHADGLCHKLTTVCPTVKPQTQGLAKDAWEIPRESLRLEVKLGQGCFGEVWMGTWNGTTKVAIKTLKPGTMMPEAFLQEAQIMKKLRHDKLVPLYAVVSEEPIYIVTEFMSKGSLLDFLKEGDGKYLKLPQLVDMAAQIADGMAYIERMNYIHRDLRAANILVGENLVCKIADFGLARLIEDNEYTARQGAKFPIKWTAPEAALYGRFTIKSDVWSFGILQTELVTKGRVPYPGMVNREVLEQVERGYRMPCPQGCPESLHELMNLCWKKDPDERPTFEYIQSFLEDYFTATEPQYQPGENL
T2 sequence (P35968 20-1356, species assumed): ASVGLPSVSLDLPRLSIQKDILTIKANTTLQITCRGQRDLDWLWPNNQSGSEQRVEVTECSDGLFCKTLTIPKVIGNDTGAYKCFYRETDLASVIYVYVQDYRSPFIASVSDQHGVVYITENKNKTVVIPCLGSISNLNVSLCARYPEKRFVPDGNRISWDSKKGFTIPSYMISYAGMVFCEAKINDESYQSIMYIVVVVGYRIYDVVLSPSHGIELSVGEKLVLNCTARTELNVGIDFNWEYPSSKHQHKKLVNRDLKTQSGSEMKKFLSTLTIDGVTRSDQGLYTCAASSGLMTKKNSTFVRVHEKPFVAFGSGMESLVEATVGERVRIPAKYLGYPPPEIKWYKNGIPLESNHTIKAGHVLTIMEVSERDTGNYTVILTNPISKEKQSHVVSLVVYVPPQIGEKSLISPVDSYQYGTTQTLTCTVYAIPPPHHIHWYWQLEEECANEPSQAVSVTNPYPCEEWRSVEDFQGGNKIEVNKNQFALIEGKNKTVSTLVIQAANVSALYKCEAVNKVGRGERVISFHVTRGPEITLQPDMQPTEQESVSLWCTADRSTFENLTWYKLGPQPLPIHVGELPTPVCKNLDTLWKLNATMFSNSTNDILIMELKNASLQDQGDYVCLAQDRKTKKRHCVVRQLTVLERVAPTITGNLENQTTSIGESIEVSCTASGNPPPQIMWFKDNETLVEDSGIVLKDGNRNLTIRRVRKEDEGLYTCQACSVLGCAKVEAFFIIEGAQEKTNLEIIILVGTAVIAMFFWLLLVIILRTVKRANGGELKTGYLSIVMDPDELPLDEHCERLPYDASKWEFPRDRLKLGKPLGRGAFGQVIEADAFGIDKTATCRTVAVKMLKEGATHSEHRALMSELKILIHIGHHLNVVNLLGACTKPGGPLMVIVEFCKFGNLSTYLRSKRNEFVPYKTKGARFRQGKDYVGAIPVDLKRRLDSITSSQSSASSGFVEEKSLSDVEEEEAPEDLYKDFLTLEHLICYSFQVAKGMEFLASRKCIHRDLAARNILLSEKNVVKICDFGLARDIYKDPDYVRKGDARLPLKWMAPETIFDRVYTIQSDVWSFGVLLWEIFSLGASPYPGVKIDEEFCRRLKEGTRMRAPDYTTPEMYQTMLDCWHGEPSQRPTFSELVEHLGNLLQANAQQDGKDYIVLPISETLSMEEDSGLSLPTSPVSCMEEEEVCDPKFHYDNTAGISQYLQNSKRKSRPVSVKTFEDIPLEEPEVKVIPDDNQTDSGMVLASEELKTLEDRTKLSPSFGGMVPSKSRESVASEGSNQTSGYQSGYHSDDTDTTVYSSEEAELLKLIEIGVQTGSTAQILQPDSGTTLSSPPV
T4 sequence (P11362 22-822, species assumed): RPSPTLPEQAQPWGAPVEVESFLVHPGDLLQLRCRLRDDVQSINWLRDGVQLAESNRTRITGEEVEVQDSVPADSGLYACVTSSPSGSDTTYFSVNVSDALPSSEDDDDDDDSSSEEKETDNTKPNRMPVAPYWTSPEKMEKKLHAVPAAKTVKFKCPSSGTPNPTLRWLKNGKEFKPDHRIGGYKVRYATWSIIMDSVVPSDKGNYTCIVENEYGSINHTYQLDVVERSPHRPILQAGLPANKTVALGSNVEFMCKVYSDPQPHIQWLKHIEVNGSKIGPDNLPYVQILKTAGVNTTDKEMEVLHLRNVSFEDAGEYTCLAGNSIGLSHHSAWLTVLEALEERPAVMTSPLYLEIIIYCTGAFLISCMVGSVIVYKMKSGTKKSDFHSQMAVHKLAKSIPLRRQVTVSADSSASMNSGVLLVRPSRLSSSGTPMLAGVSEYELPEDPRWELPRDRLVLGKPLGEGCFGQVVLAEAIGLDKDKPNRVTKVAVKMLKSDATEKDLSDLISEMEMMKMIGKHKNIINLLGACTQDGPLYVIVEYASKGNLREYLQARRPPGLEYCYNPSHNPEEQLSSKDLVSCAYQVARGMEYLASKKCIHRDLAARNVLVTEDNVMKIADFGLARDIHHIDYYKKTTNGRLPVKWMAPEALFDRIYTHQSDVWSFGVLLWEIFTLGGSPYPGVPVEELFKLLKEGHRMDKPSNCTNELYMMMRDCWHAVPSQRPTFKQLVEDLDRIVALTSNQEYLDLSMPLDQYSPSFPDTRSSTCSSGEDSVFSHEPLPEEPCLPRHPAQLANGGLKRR
T5 sequence (P09619 33-1106, species assumed): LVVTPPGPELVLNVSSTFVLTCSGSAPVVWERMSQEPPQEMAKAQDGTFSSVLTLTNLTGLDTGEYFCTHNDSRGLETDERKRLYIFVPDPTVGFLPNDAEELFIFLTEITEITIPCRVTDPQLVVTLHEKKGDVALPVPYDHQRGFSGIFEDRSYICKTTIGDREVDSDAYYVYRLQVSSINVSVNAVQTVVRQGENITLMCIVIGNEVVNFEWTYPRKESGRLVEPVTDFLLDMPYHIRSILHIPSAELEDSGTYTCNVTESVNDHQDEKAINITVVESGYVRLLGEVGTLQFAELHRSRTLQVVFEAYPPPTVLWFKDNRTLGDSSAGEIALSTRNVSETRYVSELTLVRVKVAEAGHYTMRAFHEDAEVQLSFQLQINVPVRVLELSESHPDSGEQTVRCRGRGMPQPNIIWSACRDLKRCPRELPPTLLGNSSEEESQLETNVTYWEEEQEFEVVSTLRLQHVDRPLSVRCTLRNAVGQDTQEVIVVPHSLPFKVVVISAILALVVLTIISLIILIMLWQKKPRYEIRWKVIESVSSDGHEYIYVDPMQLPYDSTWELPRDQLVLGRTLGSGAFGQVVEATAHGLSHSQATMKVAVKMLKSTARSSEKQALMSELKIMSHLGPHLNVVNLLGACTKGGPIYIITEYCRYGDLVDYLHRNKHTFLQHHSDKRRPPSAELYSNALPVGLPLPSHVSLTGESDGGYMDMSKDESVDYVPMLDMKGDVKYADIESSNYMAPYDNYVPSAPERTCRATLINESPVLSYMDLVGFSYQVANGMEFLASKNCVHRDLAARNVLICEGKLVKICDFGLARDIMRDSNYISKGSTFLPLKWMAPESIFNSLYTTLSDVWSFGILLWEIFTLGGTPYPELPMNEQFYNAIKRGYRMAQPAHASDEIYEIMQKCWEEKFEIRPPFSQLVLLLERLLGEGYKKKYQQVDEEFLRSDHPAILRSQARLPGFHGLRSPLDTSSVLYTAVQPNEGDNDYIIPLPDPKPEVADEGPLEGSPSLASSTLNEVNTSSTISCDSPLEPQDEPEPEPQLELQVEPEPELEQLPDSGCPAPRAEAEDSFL

pIC50 (human Yes)	pIC50 (VEGFR2)	pIC50 (EphB4)	pIC50 (FGFR1)	pIC50 (PDGFRb)	SMILES
8.22	6.86	6.72	< 5.00		Clc1cccc(Cl)c1CNc1cnc(Nc2cccc(OCCN3CCCC3)c2)nc1 [drawing 211]
9.10	6.49		5.28		O=C(Nc1cnc(Nc2ccc(S(=O)(=O)NCCN3CCCC3)cc2)nc1)c1cc(O)ccc1Cl [drawing 203]
7.72	6.21		5.68		O=C(NCCN1CCCC1)c1csc(Nc2ncc(NC(=O)c3cc(O)ccc3Cl)cn2)n1 [drawing 209]
8.72	6.51		5.27		O=C(Nc1cnc(Nc2ccc(C(=O)N3CCNCC3)cc2)nc1)c1cc(O)ccc1Cl [drawing 205]
7.59	< 5.00		< 5.00	6.69	O=C(Nc1cnc(Nc2ccc(CCCN3CCCC3)cc2)nc1)c1c(Cl)cccc1Cl
8.22	< 5.00	6.72	< 5.00	6.86	CC(C)N(CCO)C(=O)c1ccc(Nc2ncc(NC(=O)c3cc(O)ccc3Cl)cn2)cc1 [drawing 210]
8.51	6.06	7.05	6.00	7.89	O=C(NCCN1CCCC1)c1ccc(Nc2ncc(NC(=O)c3cc(O)ccc3Cl)cn2)cn1 [drawing 204]
8.00	5.90	6.96	5.14	7.89	O=C(Nc1cnc(Nc2cccc(OCCN3CCCC3)c2)nc1)c1cc(O)ccc1Cl [drawing 201]
8.10	< 5.00	6.36	< 5.00	6.74	O=C(Nc1cnc(Nc2cccc(OCCN3CCCC3)c2)nc1)c1c(Cl)cccc1Cl [drawing 202]
8.43	6.45		5.12		O=C(Nc1cnc(Nc2ccc(S(=O)(=O)CCCN3CCCC3)cc2)nc1)c1cc(O)ccc1Cl [drawing 206]
7.40	6.04		5.28	7.29	Clc1cccc(Cl)c1CNc1cnc(Nc2ccc(OCCN3CCCC3)cc2)nc1
8.36	6.59	7.23	5.09	8.20	O=C(NCCN1CCCC1)c1ccc(Nc2ncc(NC(=O)c3cc(O)ccc3Cl)cn2)cc1 [drawing 208]
8.00	6.44		5.03		CN1CCN(C(=O)c2ccc(Nc3ncc(NC(=O)c4cc(O)ccc4Cl)cn3)cc2)CC1 [drawing 207]
7.59	6.25	6.70	4.70	7.70	O=C(Nc1cnc(Nc2ccc(OCCN3CCCC3)cc2)nc1)c1cc(O)ccc1Cl [drawing 200]
